From PubChem BioAssay (NCI)
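Assay format: 96-well plates, 48-hour exposure. Definition used: TGI = concentration required for complete inhibition of growth.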

Columns and labels:
Assay in all cases: inhibition of tumour cell growth, NCI panel, 48 h
MCF7 breast = test system: MCF7 breast
KM12 colon = test system: KM12 colon
ACHN renal = test system: ACHN renal
EKVX NSCLC = test system: EKVX NSCLC
CCRF-CEM leukemia = test system: CCRF-CEM leukemia
M14 melanoma = test system: M14 melanoma
PC-3 prostate = test system: PC-3 prostate
A549 NSCLC = test system: A549 NSCLC
NCI-H522 lung = test system: NCI-H522 lung
NCI/ADR-RES ovarian = test system: NCI/ADR-RES ovarian
HCT-15 colon = test system: HCT-15 colon
NCI-H460 lung = test system: NCI-H460 lung
SR leukemia = test system: SR leukemia
U251 CNS = test system: U251 CNS
T-47D breast = test system: T-47D breast
UACC-62 melanoma = test system: UACC-62 melanoma
MDA-N = test system: MDA-N
SNB-75 CNS = test system: SNB-75 CNS

## N#CCc1n[nH]c(Cc2ccccc2)n1
MCF7 breast
  TGI: > 100 µM
KM12 colon
  TGI: > 100 µM
ACHN renal
  TGI: > 100 µM
EKVX NSCLC
  TGI: > 100 µM
CCRF-CEM leukemia
  TGI: > 100 µM
M14 melanoma
  TGI: > 100 µM
PC-3 prostate
  TGI: > 100 µM
A549 NSCLC
  TGI: > 100 µM
NCI-H522 lung
  TGI: > 100 µM
NCI/ADR-RES ovarian
  TGI: > 100 µM
HCT-15 colon
  TGI: > 100 µM
NCI-H460 lung
  TGI: > 100 µM
SR leukemia
  TGI: > 100 µM
U251 CNS
  TGI: > 100 µM
T-47D breast
  TGI: > 100 µM
UACC-62 melanoma
  TGI: > 100 µM
MDA-N
  TGI: > 100 µM
SNB-75 CNS
  TGI: > 100 µM

## C[C@H](CCC(=O)NCCS(=O)(=O)O)[C@H]1CC[C@H]2[C@@H]3CC[C@@H]4C[C@H](O)CC[C@]4(C)[C@H]3CC[C@]12C
MCF7 breast
  TGI: > 100 µM
KM12 colon
  TGI: > 100 µM
ACHN renal
  TGI: > 100 µM
EKVX NSCLC
  TGI: > 100 µM
CCRF-CEM leukemia
  TGI: > 100 µM
M14 melanoma
  TGI: > 100 µM
PC-3 prostate
  TGI: > 100 µM
A549 NSCLC
  TGI: > 100 µM
NCI-H522 lung
  TGI: > 100 µM
NCI/ADR-RES ovarian
  TGI: > 100 µM
HCT-15 colon
  TGI: > 100 µM
NCI-H460 lung
  TGI: > 100 µM
SR leukemia
  TGI: > 100 µM
U251 CNS
  TGI: > 100 µM
T-47D breast
  TGI: > 100 µM
UACC-62 melanoma
  TGI: > 100 µM
MDA-N
  TGI: > 100 µM
SNB-75 CNS
  TGI: > 100 µM

## COC(=O)CCC(=O)NC1=C(NCc2ccccc2)C(=O)c2ccccc2C1=O
MCF7 breast
  TGI: 58.2 µM
KM12 colon
  TGI: > 100 µM
ACHN renal
  TGI: > 100 µM
EKVX NSCLC
  TGI: > 100 µM
CCRF-CEM leukemia
  TGI: > 100 µM
M14 melanoma
  TGI: > 100 µM
PC-3 prostate
  TGI: > 100 µM
A549 NSCLC
  TGI: > 100 µM
NCI-H522 lung
  TGI: 50 µM
NCI/ADR-RES ovarian
  TGI: > 100 µM
HCT-15 colon
  TGI: 51.5 µM
NCI-H460 lung
  TGI: > 100 µM
SR leukemia
  TGI: > 100 µM
U251 CNS
  TGI: 94.8 µM
T-47D breast
  TGI: > 100 µM
UACC-62 melanoma
  TGI: 33.1 µM
MDA-N
  TGI: 29.6 µM
SNB-75 CNS
  TGI: > 100 µM

## COc1ccc2nc3ccc(OC)cc3c(SCCO)c2c1
MCF7 breast
  TGI: > 62.3 µM
KM12 colon
  TGI: > 63.8 µM
ACHN renal
  TGI: > 100 µM
EKVX NSCLC
  TGI: > 100 µM
CCRF-CEM leukemia
  TGI: > 31.1 µM
M14 melanoma
  TGI: > 100 µM
PC-3 prostate
  TGI: > 100 µM
A549 NSCLC
  TGI: > 100 µM
NCI-H522 lung
  TGI: > 34.9 µM
NCI/ADR-RES ovarian
  TGI: > 80.3 µM
HCT-15 colon
  TGI: > 100 µM
NCI-H460 lung
  TGI: > 100 µM
SR leukemia
  TGI: > 79.1 µM
U251 CNS
  TGI: > 100 µM
T-47D breast
  TGI: > 100 µM
UACC-62 melanoma
  TGI: > 100 µM
MDA-N
  TGI: > 100 µM
SNB-75 CNS
  TGI: 81.8 µM

## CCSc1sc(=Nc2ccc(N=c3sc(C)c(SC)s3)cc2)sc1-c1ccc(C)cc1
MCF7 breast
  TGI: > 100 µM
KM12 colon
  TGI: > 100 µM
ACHN renal
  TGI: > 100 µM
EKVX NSCLC
  TGI: > 100 µM
CCRF-CEM leukemia
  TGI: > 100 µM
M14 melanoma
  TGI: > 100 µM
PC-3 prostate
  TGI: > 100 µM
A549 NSCLC
  TGI: > 100 µM
NCI-H522 lung
  TGI: > 100 µM
NCI/ADR-RES ovarian
  TGI: > 100 µM
HCT-15 colon
  TGI: > 100 µM
NCI-H460 lung
  TGI: > 100 µM
SR leukemia
  TGI: > 100 µM
U251 CNS
  TGI: > 100 µM
T-47D breast
  TGI: > 100 µM
UACC-62 melanoma
  TGI: > 100 µM
MDA-N
  TGI: > 100 µM
SNB-75 CNS
  TGI: > 100 µM

## O=C1CCC2(CC1CC(Sc1ccccc1)Sc1ccccc1)OCCO2 (stereo unspecified)
MCF7 breast
  TGI: > 100 µM
KM12 colon
  TGI: > 100 µM
ACHN renal
  TGI: > 100 µM
EKVX NSCLC
  TGI: > 100 µM
CCRF-CEM leukemia
  TGI: > 100 µM
M14 melanoma
  TGI: > 100 µM
PC-3 prostate
  TGI: > 100 µM
A549 NSCLC
  TGI: > 100 µM
NCI-H522 lung
  TGI: 85.4 µM
NCI/ADR-RES ovarian
  TGI: > 100 µM
HCT-15 colon
  TGI: > 100 µM
NCI-H460 lung
  TGI: > 100 µM
SR leukemia
  TGI: 87.5 µM
U251 CNS
  TGI: > 100 µM
T-47D breast
  TGI: 97.3 µM
UACC-62 melanoma
  TGI: > 100 µM
MDA-N
  TGI: > 100 µM
SNB-75 CNS
  TGI: > 100 µM

## OC(c1cc2ccccc2o1)c1cc2ccccc2s1 (stereo unspecified)
MCF7 breast
  TGI: > 10 µM
KM12 colon
  TGI: > 10 µM
ACHN renal
  TGI: > 10 µM
EKVX NSCLC
  TGI: > 10 µM
CCRF-CEM leukemia
  TGI: > 10 µM
M14 melanoma
  TGI: > 10 µM
PC-3 prostate
  TGI: > 10 µM
A549 NSCLC
  TGI: > 10 µM
NCI-H522 lung
  TGI: > 10 µM
NCI/ADR-RES ovarian
  TGI: > 10 µM
HCT-15 colon
  TGI: > 10 µM
NCI-H460 lung
  TGI: > 10 µM
SR leukemia
  TGI: > 10 µM
U251 CNS
  TGI: > 10 µM
T-47D breast
  TGI: > 10 µM
UACC-62 melanoma
  TGI: > 10 µM
MDA-N
  TGI: > 10 µM
SNB-75 CNS
  TGI: > 10 µM
